Experimental data as given in patent publication US20180094248A1, “Necroptosis Signaling as a Therapeutic Target for Alzheimer's Disease” (Arizona Board of Regents on behalf of Arizona State …, priority 2016, published 2018).

Columns and labels:
[1] = system: 5xFAD mice; assay: Fluoro-Jade staining of brain sections of 5xFAD mice treated with Nec-1S in vivo; parameters: species or system mouse; conditions: 8-month-old 5xFAD mice; 10 mg/kg i.p. once, then 0.5 mg/ml in drinking water for 21 days; vs vehicle
Description: (§1) Specifically, mice receive a single intraperitoneal injection of 10 mg/kg Nec1s after which they were given Nec1S in their drinking water at a concentration of 0.5 mg/ml for 21 days.
Immunohistochemistry: Coronal sections from hippocampus and temporal gyms of control (CTL) and Alzheimer's disease (AD) cases were pre-mounted on coated slides and washed in TBS. After blocking in TBSB (TBS, 2% BSA, and 0.1% Triton X), tissue was incubated overnight at 4° C. with the following primary antibodies: RIPK1 (1:200, BD Transduction Laboratories, catalog number 610459), MLKL (1:200, Novus Biologicals, catalog number NBP1-56729), RIPK3 (1:200, RD Systems catalog number MAB7604), pMLKL Ser358/Thr357 (1:200, Abcam, catalog number ab187091), pMLKL (1:200, SAB Signalway Antibody, catalog number 12837), NeuN (1:200, Cell Signaling, catalog number 024307P), Ibal (1:200, Wako, catalog number 09-19741), GFAP (1:200, Cell Signaling, catalog number 3670S), Caspase 3 (1:200, Millipore, catalog number AB3623), phospho-tau pSer202/Thr205 (ATB, 1:200, Thermo Fisher Scientific, catalog number MN1020), and pan-Cadherin (1:200, Abcam, catalog number ab6528 and ab6529). CP13 was a kind gift from Dr. Peter Davies. […]

[2] = system: phosphorylated MLKL; assay: Western blot of total and phosphorylated MLKL in brains of Nec-1S treated 5xFAD mice; assay type: in vivo, mouse; conditions: 8-month-old 5xFAD mice; 10 mg/kg i.p. once, then 0.5 mg/ml in drinking water for 21 days; vs vehicle
Description: as §1
Protein Extraction: Human temporal gyms tissue samples (0.1 g/sample) were extracted in sequential buffers, from lower to higher detergent strength. Briefly, the samples were homogenized in TBS (50 mM Tris-HCl, pH 7.4, 175 mM NaCl, 5 mM EDTA, 1 mM N-ethyl-maleimide) containing protease inhibitors (Roche) and phosphatase inhibitors (Millipore). The protein extract was centrifuged at 120,000 g for 30 minutes at 4° C. The resulting supernatant represented the TBS soluble fraction. Pellets were homogenized in TBS/1% Triton X-100 and spun at 1000 g for 10 minutes at 4° C. The supernatant represented the Triton soluble fraction. Pellets were washed in TBS/1M sucrose and then homogenized in RIPA buffer. […]
Western blot and ELISA: The proteins were run using reducing conditions in precast gels (Thermo Fisher Scientific) and transferred to nitrocellulose membranes (iBlot, Thermo Fisher Scientific). […] The blots were then washed with TBS-T, and imaged/quantified using a LICOR Odyssey CLx (LI-COR Biosciences) attached to a Dell computer (OptiPlex 7010) running Windows 7 and Image Studio (version 1.0.11, LI-COR Biosciences). […]

SMILES: CN1C(=O)NC(Cc2c[nH]c3c(Cl)cccc23)C1=O (centres unmarked) [Nec1S, 5-((7-chloro-1 H-indol-3-yl)methyl)-3-methylimidazolidine-2,4-dione]
- Fluoro-Jade-positive neurons [1]: fewer Fluoro-Jade-positive neurons compared to vehicle-treated 5xFAD mice
- pMLKL/MLKL ratio [2]: lower pMLKL/MLKL ratio
